In US12383562B2, “Application of metal complex” (Hunan Fangshengtai Medical Technology Co., Ltd., priority 2019, dated 2025):

Test system: mice with inflammatory pain
Assay: Analgesic activity: CFA-induced inflammatory pain in mice, Von Frey test (paw withdrawal threshold)
Type: in vivo, Kunming mice
Details: for response to the compound (pain threshold): CFA mice, intraperitoneal administration, approximately 0.03 mmol/kg (9, 10 or 11 mg/kg), seven mice; for change of paw withdrawal threshold after injection of drug: drug injected 24 hours after CFA, mice with inflammatory pain
Experimental: The analgesic assays of three vanadium compounds (bis(maltolato)oxovanadium, bis(ethylmaltolato)oxovanadium, and bis(kojato)oxovanadium) in mice are presented below. Some of the results are shown in FIG. 1, where S1 is bis(maltolato)oxovanadium, S2 is bis(ethylmaltolato)oxovanadium, S3 is bis(kojato)oxovanadium, and thepositive group (i.e., a positive control group) is aspirin group.
10 μl of complete Freund's adjuvant (CFA) was injected subcutaneously into the plantar surface of the left hindpaws of mice (♂ Kunming mice, 22-40 g) to produce inflammation. Von Frey tests were performed at 24 hours after injection or later to determine pain thresholds, i.e., under the guidance of a Dixon's Up-Down method, mice were induced with Von Frey fibers to have mechanical withdrawal of their hindpaws data were collected, and their 50% paw withdrawal thresholds (referred to as paw withdrawal threshold or PWT), namely the pain thresholds, were calculated. Afterwards, the mice were divided into a physiological saline group, a positive control group and a drug group, and injected intraperitoneally with 0.4 ml of physiological saline, 0.4 ml of aspirin (acetylsalicylic acid, or ASA) Tris-buffer solution at a concentration of 20 mg/ml and a mixed solution of a tested compound and 0.4 ml of cellulose solution (1%), respectively. Then, changes in the pain threshold were monitored with the Von Frey tests.

In the case of `Cc1occc(=O)c1[O][V](=[O])[O]c1c(C)occc1=O` [S1, bis(maltolato)oxovanadium(IV)], the “response to the compound (pain threshold)” value (shortened to “response to the compound”) is reported as “all seven mice showed a response to the compound with a general increase in pain threshold” and the “change of paw withdrawal threshold after injection of drug” value (“change of paw withdrawal threshold” below) is reported as “significant increase in the paw withdrawal threshold”.

For `CCc1occc(=O)c1[O][V](=[O])[O]c1c(CC)occc1=O` [S2, bis(ethylmaltolato)oxovanadium(IV)], the “response to the compound” value was “all seven mice showed a response to the compound with a general increase in pain threshold” and the “change of paw withdrawal threshold” value was “significant increase in the paw withdrawal threshold”.

`[O]=[V-2]12([O]C3=COC(CO)=CC3=[O+]1)[O]C1=COC(CO)=CC1=[O+]2` [S3, bis(kojato)oxovanadium(IV)] was tested, and the “response to the compound” value was “all seven mice showed a response to the compound with a general increase in pain threshold” and the “change of paw withdrawal threshold” value was “significant increase in the paw withdrawal threshold”.
